According to patent US20040009243A1, “Cancer preventive composition comprising ginsenoside glycosides of red ginseng” (priority 2002, published 2004):
Entries after “also recorded” stand apart in the source; their conditions may differ. Where two headings read alike, the source gives them in different places.

Tests used:
[1] = tested on: lung adenoma induced by benzo(a)pyrene; assay: 9-weeks medium-term anticarcinogenicity test of ginsenosides (Experiment 1); type: in vivo, NIH(GP) mice; conditions: for incidence of lung adenoma on the average: BP 0.5 mg plus ginsenoside; for incidence of lung adenoma on the average / Incidence (lung adenoma), treatment alone without BP: sacrifice 9th week; for incidence of lung adenoma on the average / Incidence, number of mice with lung adenoma / Incidence, value in parentheses (percent of mice with lung adenoma) / Multiplicity (Mean ± S.D.): BP line = carcinogen alone; for Incidence, number of mice with lung adenoma / Incidence, value in parentheses (percent of mice with lung adenoma) / Multiplicity (Mean ± S.D.): BP 0.5 mg/head + ginsenoside 80 μg/ml; for Incidence (lung adenoma), treatment alone without BP: red ginseng extract 2 mg/ml, ginsenosides 80 μg/ml in drinking water, 6 weeks; for lung adenoma in groups treated singularly, without BP (in words): treatment alone, 9 weeks
From the text: 1) Experimental animal: In this experiment newborn non-inbred strain NIH(GP) mice were used. Each experimental animal was in a breeding chamber maintained at constant temperature and humidity and, after weaning, given a solid feed prepared according to the NIH-7 open formula. The experimental animals were allowed to freely take drinking water and diet.
2) Establishment of the test groups: The test groups were a total of 10 groups including the normal control group, the ginsenoside Rg3 treatment group, the ginsenoside Rg5 group, the ginsenoside Rh1 group, the ginsenoside Rh2 group, the BP 0.5 mg group, the BP plus ginsenoside Rg3 group, the BP plus ginsenoside Rg5 group, the BP plus ginsenoside Rh1 group, and the BP plus ginsenoside Rh2 group, wherein 25 to 30 newborn mouse, female and male respectively, were used in each group.
3) Chemical carcinogen: As the chemical carcinogen, benzo(a)pyrene (BP: Sigma Chemical Co.) was used. The given amount of BP was suspended in 1% aqueous gelatin solution and then injected subcutaneously in the subscapular region once in an amount of 0.02 cc (0.5 mg).
4) Administration of respective ginsenosides: Respective ginsenosides, i.e. ginsenoside Rg3, ginsenoside Rg5, ginsenoside Rh1 and ginsenoside Rh2 were suspended in drinking water to 80 μg/ml and daily administered from the 3rd week to 9 th week after birth, i.e. during the period of 6 weeks.
5) Monitoring and sacrifice of experimental animals: The appearance of mice was monitored every time at which the feed and drinking water were changed, beginning from weaning at the 3th week after birth. Mice were weighed at intervals of one week and sacrificed at the 9th week after birth and then subjected to autopsy.
6) Pathological investigation: Immediately after autopsy, lungs were exposed to observe the presence or absence of nodules of lung adenoma, and at the same time, to observe the presence or absence of any lesion in respective main organs by the naked eye. Then lungs were fixed in Tellyesniczky solution and the other main organs were fixed in 10% neutral formalin solution, cut and then examined with a microscope. After fixing of lungs, nodules of long adenoma were counted by the naked eye. Then lungs were cut as in case of other main organs, stained with hematoxylin-eosin and then investigated to find nodules of lung adenoma.
7) Statistical treatment: The comparisons of the calculated lung adenoma incidence in respective test groups were made using the Chi-square test and the comparisons of multiplicity were made using Student's t test to obtain P-value.

[2] = tested on: mouse pulmonary adenoma induced by benzo(a)pyrene; conditions: BP + ginseng of given age, BP line = carcinogen alone, cited from earlier work
male ICR mice = assay: acute toxicity test (Experiment 2); type: in vivo; conditions: for autopsy examination, macroscopic (in words) / dead animals (in words): 1000 mg/kg oral, once; for autopsy examination, macroscopic (in words): 14th day after administration; for dead animals (in words): observed for 14 days; for acute toxicity / toxicity (in words): mice, oral route, 1000 mg/kg
Procedure: 20 male ICR mice weighing 26-30 grams were used in each test group to conduct the acute toxicity test of ginsenosides Rg3, Rg5 and Rh2. Specifically, each of ginsenosides Rg3, Rg5 and Rh2 was prepared in 0.5% Tween 80 as the solvent to the concentration of 100 mg/ml and then orally administered to mice once in an amount of 0.2 ml per 20 grams of body weight. The control group was given only 0.5% Tween 80 solvent via oral route. […] Further, on 14th day after administration the animals were sacrificed and then autopsied to examine macroscopically the main organs.

Compound	incidence of lung adenoma on the average [1]	Incidence, number of mice with lung adenoma ([1]; Sex F)	Incidence, value in parentheses (percent of mice with lung adenoma) ([1]; Sex F)	Multiplicity (Mean ± S.D.) ([1]; Sex F)	Incidence, number of mice with lung adenoma ([1]; Sex M + F)	Incidence, value in parentheses (percent of mice with lung adenoma) ([1]; Sex M + F)	Multiplicity (Mean ± S.D.) ([1]; Sex M + F)	Incidence, number of mice with lung adenoma ([1]; Sex M)	Incidence, value in parentheses (percent of mice with lung adenoma) ([1]; Sex M)	Multiplicity (Mean ± S.D.) ([1]; Sex M)	Incidence (lung adenoma), treatment alone without BP ([1]; Sex F)	Incidence (lung adenoma), treatment alone without BP ([1]; Sex M + F)	Incidence (lung adenoma), treatment alone without BP ([1]; Sex M)	lung adenoma in groups treated singularly, without BP (in words) [1]	autopsy examination, macroscopic (in words) (male ICR mice)	dead animals (in words) (male ICR mice)	acute toxicity / toxicity (in words) (male ICR mice)	further results
c1ccc2c(c1)cc1ccc3cccc4ccc2c1c34 [Benzo(a)pyrene (BP), benzo(a)pyrene, reference compound]	60%	16	64.0	1.80 ± 2.12	30	60.0	1.50 ± 1.82	14	56.0	1.20 ± 1.44	–	–	–	–	–	–	–	Incidence of lung adenoma ([2]; Fresh ginseng Extract series): 63.9; Incidence of lung adenoma ([2]; Fresh ginseng Powder series): 41.3; Incidence of lung adenoma ([2]; Red ginseng Extract series): 47.5; Incidence of lung adenoma ([2]; Red ginseng powder series): 48.6; Incidence of lung adenoma ([2]; White ginseng Powder series): 45.0; Incidence of lung adenoma ([2]; White ginseng extract series): 41.3
CC(C)=CCC[C@](C)(O)[C@H]1CC[C@]2(C)[C@@H]1[C@H](O)C[C@@H]1[C@@]3(C)CC[C@H](O[C@@H]4O[C@H](CO)[C@@H](O)[C@H](O)[C@H]4O[C@@H]4O[C@H](CO)[C@@H](O)[C@H](O)[C@H]4O)C(C)(C)[C@@H]3CC[C@]12C [Ginsenoside Rg3, ginsenoside Rg3]	46.7%	15	50.0	1.03 ± 1.27	28	46.7	0.85 ± 1.13	13	43.3	0.67 ± 0.96	0	0	0	did never occur lung adenoma	no special pathological finding	no dead animal was observed	did not exhibit any acute toxicity; also recorded: have no toxicity	–
CC(C)=CC/C=C(\C)[C@H]1CC[C@]2(C)[C@@H]1[C@H](O)C[C@@H]1[C@@]3(C)CC[C@H](O[C@@H]4O[C@H](CO)[C@@H](O)[C@H](O)[C@H]4O[C@@H]4O[C@H](CO)[C@@H](O)[C@H](O)[C@H]4O)C(C)(C)[C@@H]3CC[C@]12C [Ginsenoside Rg5, ginsenoside Rg5]	45.0%	14	46.7	1.33 ± 2.89	27	45.0	1.08 ± 2.21	13	43.3	0.83 ± 1.21	0	0	0	did never occur lung adenoma	no special pathological finding	no dead animal was observed	did not exhibit any acute toxicity; also recorded: have no toxicity	–
CC(C)=CCC[C@](C)(O)[C@H]1CC[C@]2(C)[C@@H]1[C@H](O)C[C@@H]1[C@@]3(C)CC[C@H](O)C(C)(C)[C@@H]3[C@@H](O[C@@H]3O[C@H](CO)[C@@H](O)[C@H](O)[C@H]3O)C[C@]12C [Ginsenoside Rh1, ginsenoside Rh1, reference compound]	–	16	53.3	1.49 ± 1.86	31	51.7	1.03 ± 1.27	15	50.0	1.20 ± 1.54	–	–	–	did never occur lung adenoma	–	–	–	–
CC(C)=CCC[C@](C)(O)[C@H]1CC[C@]2(C)[C@@H]1[C@H](O)C[C@@H]1[C@@]3(C)CC[C@H](O[C@@H]4O[C@H](CO)[C@@H](O)[C@H](O)[C@H]4O)C(C)(C)[C@@H]3CC[C@]12C [Ginsenoside Rh2, ginsenoside Rh2]	48.3%	16	53.3	1.53 ± 1.93	29	48.3	1.15 ± 1.61	13	43.3	0.77 ± 1.14	0	0	0	did never occur lung adenoma	no special pathological finding	no dead animal was observed	did not exhibit any acute toxicity; also recorded: have no toxicity	–
